The experiment relates to Plasmodium berghei. Put plainly: Luciferase/luciferin-expressing antifolate-resistant parasites were used to infect a culture of HepG2 cells that were pre-incubated with compounds. Infected hepatocytes emit light due to the luciferase reaction. Assay results are presented as the percent inhibition of light emission compared to control. […]. The note with it: sporozoite; for IC90: read-out: LUCIFERASE INFECTION ASSAY - IC90. In kind it is functional.

Setting [1] is: read-out: LUCIFERASE INFECTION ASSAY - IC50.

From ChEMBL document CHEMBL4483862, “Open-source discovery of chemical leads for next-generation chemoprotective antimalarials” (2018) come the findings set out here.

SMILES strings stand for the structures.

Usually IC50 stands for the concentration that inhibits the measured activity by half. Usually IC90 stands for the concentration at which the effect reaches the 90% level. In the case of `Cc1cc(C)c(C)c(S(=O)(=O)N2CCC(C(=O)Nc3nnc(-c4ccccc4)o3)CC2)c1C`, the IC90 was > 10 µM. Further, where the note is “HEPG2TOX_HILL_SLOPE 7.53, HEPG2TOX_R_SQUARED 0.782, PBLUC_HILL_SLOPE 3.42, PBLUC_R_SQUARED 0.39, read-out: LUCIFERASE INFECTION ASSAY - IC50”, the IC50 turned out to be 6.89 µM.
Turning to `COc1ccc(/C=C/C(=O)N2CCCC2c2cccs2)cc1S(=O)(=O)N1CCCCC1` (stereo unspecified), the IC90 was > 10 µM. Under setting [1], the IC50 is > 10 µM.
For `CC(C)c1ccc(C(=O)N2CC(C(=O)N3CCOCC3)Oc3ccccc32)cc1` (stereo unspecified), the IC90 is > 10 µM. Moreover, under setting [1], the IC50 was > 10 µM.
As to `N#Cc1ncn(-c2nc(-c3ccccn3)nc3sc(-c4ccccc4)cc23)n1`, the IC90 was determined as 7.91 µM. The IC50 (HEPG2TOX_HILL_SLOPE 1.72, HEPG2TOX_R_SQUARED 0.411, PBLUC_HILL_SLOPE 3.83, PBLUC_R_SQUARED 0.832, read-out: LUCIFERASE INFECTION ASSAY - IC50) amounted to 4.46 µM.
Regarding `CCCCc1[nH]nc2ccnc(-c3cncc(OC)c3)c12`, the IC90 is > 10 µM. Moreover, the IC50 (HEPG2TOX_HILL_SLOPE 1.78, HEPG2TOX_R_SQUARED 0.895, read-out: LUCIFERASE INFECTION ASSAY - IC50) is > 10 µM.
For the compound `Cc1cccc(-c2nnc(Sc3nc(C)nc4sc5c(c34)CCCC5)n2CC(N)=O)c1`, the IC90 was 1.1 µM. The IC50 (HEPG2TOX_HILL_SLOPE 8.24, HEPG2TOX_R_SQUARED 0.61, PBLUC_HILL_SLOPE 14.6, PBLUC_R_SQUARED 0.735, read-out: LUCIFERASE INFECTION ASSAY - IC50) stood at 0.944 µM.
On to `Cc1ccc2c(Cl)cc(Cl)c(OCC(=O)NC3CCCCC3C)c2n1` (stereo unspecified), for which the IC90 is > 10 µM. For the same compound, the concentration for half-maximal inhibition (IC50) under setting [1] is > 10 µM.
As for `O=C(O)C1CSC(c2ccccc2)N1` (stereo unspecified), the IC90 was > 15.8 µM. Besides, under setting [1], the IC50 was > 15.8 µM.
Consider `CCOC(=O)c1nc(-c2ccc([N+](=O)[O-])o2)no1`, for which the concentration for an effect of 90% (IC90) is > 13 µM. Also, the IC50 under setting [1] was > 13 µM.
Regarding `COc1ccc(-c2cnc3cnc(-c4ccc5c(ccn5C)c4)cn23)cn1`, the IC90 was 1.22 µM. Under “HEPG2TOX_HILL_SLOPE 1.17, HEPG2TOX_R_SQUARED 0.992, PBLUC_HILL_SLOPE 12.5, PBLUC_R_SQUARED 0.775, read-out: LUCIFERASE INFECTION ASSAY - IC50”, the IC50 worked out at 1.02 µM.
Take `CCOc1cc2c(cc1CNC(=O)Cn1cnc3c(cnn3-c3ccccc3)c1=O)OC(C)C2` (stereo unspecified): the IC90 was > 10 µM. Moreover, the IC50 (FFLUC_HILL_SLOPE 95.3, FFLUC_R_SQUARED 0.504, HEPG2TOX_HILL_SLOPE 1.9, HEPG2TOX_R_SQUARED 0.749, read-out: LUCIFERASE INFECTION ASSAY - IC50) was > 10 µM.
With `Nc1cc(C(F)(F)F)ccc1Oc1ccc(Cl)cc1Cl`, the IC90 is > 10.2 µM. Moreover, the IC50 under setting [1] is > 10.2 µM.
`C=CCN(C(=O)c1[nH]c(C)c(C(C)=O)c1C)c1nc2c(s1)CCCC2`: the 90% effect concentration (IC90) was determined as 6.45 µM. The IC50 (PBLUC_HILL_SLOPE 0.713, PBLUC_R_SQUARED 0.94, read-out: LUCIFERASE INFECTION ASSAY - IC50) was determined as 0.296 µM.
As to `CCN1C(=O)N(Cc2cccc(OC)c2)C(=O)C12CCN(Cc1cn(C)c3ccccc13)CC2`, the IC90 was > 7.16 µM. Also, where the note is “PBLUC_HILL_SLOPE 4.47, PBLUC_R_SQUARED 0.0939, read-out: LUCIFERASE INFECTION ASSAY - IC50”, the IC50 worked out at 6.08 µM.
Take `Cc1ccc(-n2c(SCc3c(-c4ccccc4)nc4sccn34)nnc2-c2ccccc2)cc1C`: the IC90 amounted to 3.83 µM. In addition, under “FFLUC_HILL_SLOPE 2.28, FFLUC_R_SQUARED 0.669, PBLUC_HILL_SLOPE 14.9, PBLUC_R_SQUARED 0.408, read-out: LUCIFERASE INFECTION ASSAY - IC50”, the IC50 amounted to 3.31 µM.
Take `CCCn1c(NC(=O)c2ccc(CS(=O)(=O)c3ccccc3)o2)nc2ccccc21`: the IC90 is 4.08 µM. Besides, the IC50 (HEPG2TOX_HILL_SLOPE 2.08, HEPG2TOX_R_SQUARED 0.973, PBLUC_HILL_SLOPE 1.97, PBLUC_R_SQUARED 0.429, read-out: LUCIFERASE INFECTION ASSAY - IC50) came out at 1.34 µM.
On to `O=[N+]([O-])c1cc(C(F)(F)F)ccc1Sc1nnc(-c2ccc(Cl)cc2)[nH]1`, for which the 90% effect concentration (IC90) is > 8.23 µM. Moreover, the IC50 (FFLUC_HILL_SLOPE 0.154, FFLUC_R_SQUARED 0.106, read-out: LUCIFERASE INFECTION ASSAY - IC50) was > 8.23 µM.
For the compound `O=C(CCc1c(-c2ccc(F)cc2)[nH]c2ccc(F)cc12)NCCN1CCOCC1`, the IC90 was > 10 µM. The IC50 (HEPG2TOX_HILL_SLOPE 0.681, HEPG2TOX_R_SQUARED 0.0413, read-out: LUCIFERASE INFECTION ASSAY - IC50) was > 10 µM.
On to `CC(Nc1ccc(Oc2cccc(F)c2)cc1)C(=O)N1CCNC1=O` (stereo unspecified), for which the IC90 amounted to 1.08 µM. Also, the IC50 (PBLUC_HILL_SLOPE 25, PBLUC_R_SQUARED 0.491, read-out: LUCIFERASE INFECTION ASSAY - IC50) is 0.991 µM.
Turning to `O=C(Nc1ccccc1)Nc1ccc(Cl)c(Cl)c1`, the IC90 is 9.61 µM. Also, the IC50 (HEPG2TOX_HILL_SLOPE 12, HEPG2TOX_R_SQUARED 0.666, PBLUC_HILL_SLOPE 4.82, PBLUC_R_SQUARED 0.734, read-out: LUCIFERASE INFECTION ASSAY - IC50) amounted to 6.09 µM.
Turning to `Cc1ccc(CSc2nc3c(c(-c4cccs4)c2C#N)CCCC3)cc1`, the IC90 was > 8.76 µM. Also, for the setting “FFLUC_HILL_SLOPE 8.93, FFLUC_R_SQUARED 0.64, PBLUC_HILL_SLOPE 2.69, PBLUC_R_SQUARED 0.339, read-out: LUCIFERASE INFECTION ASSAY - IC50”, the IC50 was 6.13 µM.
For the compound `Cc1cnc(NC(=O)CSCc2cccs2)s1`, the IC90 is > 10 µM. Further, under setting [1], the IC50 was > 10 µM.
With `c1ccc(Nc2nc(-c3ccc4c(c3)OCCO4)cs2)nc1`, the IC90 came out at 2.55 µM. Further, the concentration for half-maximal inhibition (IC50) (FFLUC_HILL_SLOPE 1.22, FFLUC_R_SQUARED 0.822, PBLUC_HILL_SLOPE 0.789, PBLUC_R_SQUARED 0.792, read-out: LUCIFERASE INFECTION ASSAY - IC50) turned out to be 0.158 µM.
Regarding `Cc1nn(-c2ccccc2)nc1C(=O)Nc1nc(CN2CCCCCC2)cs1`, the IC90 was > 10 µM. The IC50 under setting [1] was > 10 µM.
As to `N#CC1C(=N)Oc2c(ccc3ccccc23)C1c1ccc(Cl)cc1` (stereo unspecified), the concentration for an effect of 90% (IC90) is > 9.92 µM. The IC50 under setting [1] is > 9.92 µM.
As for `COc1cc2c(cc1OC)C(c1ccccc1C(F)(F)F)CC(=O)N2` (stereo unspecified), the IC90 was > 9.39 µM. Moreover, for the setting “PBLUC_HILL_SLOPE 2.57, PBLUC_R_SQUARED 0.0741, read-out: LUCIFERASE INFECTION ASSAY - IC50”, the IC50 amounted to 7.98 µM.
Consider `Cc1cccc(C)c1OC(=O)c1cn(Cc2ccccc2)nc1-c1cccnc1`, for which the IC90 is > 10 µM. Further, where the note is “HEPG2TOX_HILL_SLOPE 0.808, HEPG2TOX_R_SQUARED 0.825, read-out: LUCIFERASE INFECTION ASSAY - IC50”, the IC50 was > 10 µM.
For the compound `CCCCNC(=O)c1c(NC(=O)c2cc(OC)cc(OC)c2)nc2ccccn12`, the IC90 was determined as 5.61 µM. The IC50 (FFLUC_HILL_SLOPE 9.35, FFLUC_R_SQUARED 0.0665, PBLUC_HILL_SLOPE 7.48, PBLUC_R_SQUARED 0.629, read-out: LUCIFERASE INFECTION ASSAY - IC50) stood at 4.18 µM.
As for `CC(C)CNc1cc(N2CCN(C)CC2)c(N)c2c1C(=O)c1ccccc1C2=O`, the concentration for an effect of 90% (IC90) was > 8.41 µM. Moreover, under setting [1], the IC50 was > 8.41 µM.
As for `N#Cc1ccc(Cl)cc1/N=C/C(Br)=C/c1ccccc1`, the IC90 was > 10 µM. For the same compound, the IC50 under setting [1] is > 10 µM.
For the compound `O=C(COC(=O)c1cccnc1Cl)NCCc1ccc(F)cc1`, the IC90 was > 10 µM. Moreover, under setting [1], the IC50 is > 10 µM.
Regarding `FC(F)(F)c1nnc2ccc(NC(c3ccccc3)c3cc4ccccc4o3)nn12` (stereo unspecified), the IC90 is 4.2 µM. Moreover, the IC50 (FFLUC_HILL_SLOPE 3.11, FFLUC_R_SQUARED 0.599, PBLUC_HILL_SLOPE 15.6, PBLUC_R_SQUARED 0.326, read-out: LUCIFERASE INFECTION ASSAY - IC50) was determined as 3.65 µM.
As for `O=C(CSc1nnc(N2CCCC2)n1-c1ccccc1Cl)N1CCC(c2ccccc2)=N1`, the IC90 was > 10 µM. The IC50 under setting [1] is > 10 µM.
As to `CN(C)c1ccc(-c2cc3cnc(Nc4cccc(Oc5ccccc5)c4)cc3n2C)cc1`, the IC90 came out at 6.91 µM. Under “FFLUC_HILL_SLOPE 1.74, FFLUC_R_SQUARED 0.698, HEPG2TOX_HILL_SLOPE 44.7, HEPG2TOX_R_SQUARED 0.888, PBLUC_HILL_SLOPE 2.41, PBLUC_R_SQUARED 0.586, read-out: LUCIFERASE INFECTION ASSAY - IC50”, the IC50 amounted to 2.77 µM.
For `Cn1c(C(C#N)C(=O)c2cc(-c3ccccc3)nc3ccccc23)nc2ccccc21` (stereo unspecified), the IC90 is 7.46 µM. Besides, the IC50 (HEPG2TOX_HILL_SLOPE 3.46, HEPG2TOX_R_SQUARED 0.527, PBLUC_HILL_SLOPE 3.86, PBLUC_R_SQUARED 0.794, read-out: LUCIFERASE INFECTION ASSAY - IC50) was found to be 4.22 µM.
With `Cc1nc(NCCNc2cnccn2)c2c(-c3cccs3)csc2n1`, the IC90 was 5.98 µM. Moreover, the IC50 (HEPG2TOX_HILL_SLOPE 0.714, HEPG2TOX_R_SQUARED 0.963, PBLUC_HILL_SLOPE 3.5, PBLUC_R_SQUARED 0.488, read-out: LUCIFERASE INFECTION ASSAY - IC50) is 3.19 µM.
For `O=C(COC(=O)c1ccc(-n2ncc(Cl)c(Cl)c2=O)cc1)Nc1ccc(F)cc1`, the IC90 is > 10 µM. Under setting [1], the concentration for half-maximal inhibition (IC50) is > 10 µM.
Regarding `Cn1c(-c2ccccc2)nc2cnc(Nc3cccc(OC(F)(F)F)c3)cc21`, the IC90 amounted to 2.38 µM. Further, for the setting “HEPG2TOX_HILL_SLOPE 2.98, HEPG2TOX_R_SQUARED 0.826, PBLUC_HILL_SLOPE 1.94, PBLUC_R_SQUARED 0.665, read-out: LUCIFERASE INFECTION ASSAY - IC50”, the IC50 was determined as 0.764 µM.
